Laboratory results: patent US20220324815A1, “2-PHENOXY-PYRIMIDINE DERIVATIVES AS HERBICIDAL COMPOUNDS” (SYNGENTA CROP PROTECTION AG, priority 2019, published 2022)

Assays:
Format in all cases: in vivo
Settings in all cases: 250 g/ha unless otherwise stated, evaluated after 13 days, five-point scale
Setaria faberi (SETFA) [1] = assay: Test 1 glasshouse herbicide test, post-emergence application (Table B1)
Outline: (§1)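 Pots sown in standard soil; sprayed 1 day (pre-emergence) or 8 days (post-emergence) after sowing at 250 g/ha unless stated, in acetone/water (50:50) with 0.5% Tween 20. Glasshouse 24/16 °C, 14 h light, 65% humidity; damage scored at 13 days on a 1–5 scale (5=81–100%, 1=0–20%).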

[2] = system: Amaranthus retoflexus (AMARE); assay: as above
Outline: as §1

[3] = system: Ipomoea hederacea (IPOHE); assay: as above
Outline: as §1

[4] = system: Echinochloa crus-galli (ECHCG); assay: as above
Outline: as §1

Setaria faberi (SETFA) [5] = assay: Test 1 glasshouse herbicide test, pre-emergence application (Table B2)
Outline: as §1

[6] = system: Amaranthus retoflexus (AMARE); assay: as above
Outline: as §1

[7] = system: Ipomoea hederacea (IPOHE); assay: as above
Outline: as §1

[8] = system: Echinochloa crus-galli (ECHCG); assay: as above
Outline: as §1

| SMILES | % phytotoxicity SETFA, post-emergence application (Setaria faberi (SETFA) [1]) | % phytotoxicity AMARE, post-emergence application [2] | % phytotoxicity IPOHE, post-emergence application [3] | % phytotoxicity ECHCG, post-emergence application [4] | % phytotoxicity SETFA, pre-emergence application (Setaria faberi (SETFA) [5]) | % phytotoxicity AMARE, pre-emergence application [6] | % phytotoxicity IPOHE, pre-emergence application [7] | % phytotoxicity ECHCG, pre-emergence application [8] |
| --- | --- | --- | --- | --- | --- | --- | --- | --- |
| C=CCCSc1ccccc1Oc1ncc(Cl)cn1 [Compound A71] | 3 (3=41 to 60%) | 5 (5=81 to 100%) | 4 (4=61 to 80%) | 4 (4=61 to 80%) | 5 (5=81 to 100%) | 5 (5=81 to 100%) | 1 (1=0 to 20%) | 5 (5=81 to 100%) |
| N#Cc1cccc(Oc2ncc(Cl)cn2)c1[S+]([O-])CCC(F)F (stereo not shown) [Compound A98] | 4 (4=61 to 80%) | 5 (5=81 to 100%) | 4 (4=61 to 80%) | 4 (4=61 to 80%) | 5 (5=81 to 100%) | 5 (5=81 to 100%) | 5 (5=81 to 100%) | 5 (5=81 to 100%) |
| N#Cc1cccc(Oc2ncc(Cl)cn2)c1S(=O)(=O)CCCC(F)F [Compound A102] | 4 (4=61 to 80%) | 5 (5=81 to 100%) | 4 (4=61 to 80%) | 4 (4=61 to 80%) | 5 (5=81 to 100%) | 5 (5=81 to 100%) | 5 (5=81 to 100%) | 5 (5=81 to 100%) |
| Cc1cnc(Oc2cccc(C#N)c2S(=O)(=O)CCCC(F)(F)F)nc1 [Compound A115] | 3 (3=41 to 60%) | 4 (4=61 to 80%) | 4 (4=61 to 80%) | 4 (4=61 to 80%) | 3 (3=41 to 60%) | 5 (5=81 to 100%) | 5 (5=81 to 100%) | 4 (4=61 to 80%) |
| CCCCCS(=O)(=O)c1ccccc1Oc1ncc(Cl)cn1 [Compound A43] | 2 (2=21 to 40%) | 3 (3=41 to 60%) | 1 (1=0 to 20%) | 2 (2=21 to 40%) | 4 (4=61 to 80%) | 5 (5=81 to 100%) | 1 (1=0 to 20%) | 4 (4=61 to 80%) |
| N#Cc1ccc(CSc2ccccc2Oc2ncc(Cl)cn2)cc1 [Compound A36] | 4 (4=61 to 80%) | 5 (5=81 to 100%) | 3 (3=41 to 60%) | 3 (3=41 to 60%) | 5 (5=81 to 100%) | 5 (5=81 to 100%) | 2 (2=21 to 40%) | 4 (4=61 to 80%) |
| CCCC(C)Sc1ccccc1Oc1ncc(Cl)cn1 (stereo not shown) [Compound A33] | 2 (2=21 to 40%) | 3 (3=41 to 60%) | 1 (1=0 to 20%) | 2 (2=21 to 40%) | 3 (3=41 to 60%) | 1 (1=0 to 20%) | 1 (1=0 to 20%) | 1 (1=0 to 20%) |
| CCCS(=O)(=O)c1ccccc1Oc1ncc(Cl)cn1 [Compound A50] | 1 (1=0 to 20%) | 4 (4=61 to 80%) | 2 (2=21 to 40%) | 1 (1=0 to 20%) | 5 (5=81 to 100%) | 5 (5=81 to 100%) | 2 (2=21 to 40%) | 4 (4=61 to 80%) |
| CCCC[S+]([O-])c1ccccc1Oc1ncc(Cl)cn1 (stereo not shown) [Compound A22] | 4 (4=61 to 80%) | 3 (3=41 to 60%) | 2 (2=21 to 40%) | 4 (4=61 to 80%) | 5 (5=81 to 100%) | 4 (4=61 to 80%) | 5 (5=81 to 100%) | 5 (5=81 to 100%) |
| CC(C)CS(=O)(=O)c1ccccc1Oc1ncc(Cl)cn1 [Compound A76] | 1 (1=0 to 20%) | 1 (1=0 to 20%) | 2 (2=21 to 40%) | 2 (2=21 to 40%) | 4 (4=61 to 80%) | 5 (5=81 to 100%) | 2 (2=21 to 40%) | 3 (3=41 to 60%) |
| COc1cnc(Oc2cccc(C#N)c2SCCCC(F)(F)F)nc1 [Compound A113] | 2 (2=21 to 40%) | 5 (5=81 to 100%) | 3 (3=41 to 60%) | 3 (3=41 to 60%) | 2 (2=21 to 40%) | 5 (5=81 to 100%) | 3 (3=41 to 60%) | 4 (4=61 to 80%) |
| CCCCCSc1ccccc1Oc1ncc(Cl)cn1 [Compound A44] | 2 (2=21 to 40%) | 5 (5=81 to 100%) | 1 (1=0 to 20%) | 4 (4=61 to 80%) | 5 (5=81 to 100%) | 5 (5=81 to 100%) | 1 (1=0 to 20%) | 5 (5=81 to 100%) |
| CC(C)CCS(=O)(=O)c1ccccc1Oc1ncc(Cl)cn1 [Compound A75] | 2 (2=21 to 40%) | 2 (2=21 to 40%) | 2 (2=21 to 40%) | 3 (3=41 to 60%) | 4 (4=61 to 80%) | 5 (5=81 to 100%) | 1 (1=0 to 20%) | 4 (4=61 to 80%) |
| N#Cc1cccc(Oc2ncc(Cl)cn2)c1SCCCOC(F)(F)F [Compound A116, 3-(5-chloropyrimidin-2-yl)oxy-2-[3-(trifluoromethoxy)propylsulfanyl]benzonitrile] | 4 (4=61 to 80%) | 5 (5=81 to 100%) | 4 (4=61 to 80%) | 4 (4=61 to 80%) | 5 (5=81 to 100%) | 5 (5=81 to 100%) | 5 (5=81 to 100%) | 5 (5=81 to 100%) |
| COCCCSc1ccccc1Oc1ncc(Cl)cn1 [Compound A56] | 1 (1=0 to 20%) | 2 (2=21 to 40%) | 1 (1=0 to 20%) | 1 (1=0 to 20%) | 2 (2=21 to 40%) | 2 (2=21 to 40%) | 2 (2=21 to 40%) | 1 (1=0 to 20%) |
| N#Cc1cccc(Oc2ncc(Cl)cn2)c1S(=O)(=O)CCC(F)F [Compound A97] | 2 (2=21 to 40%) | 5 (5=81 to 100%) | 4 (4=61 to 80%) | 4 (4=61 to 80%) | 4 (4=61 to 80%) | 5 (5=81 to 100%) | 5 (5=81 to 100%) | 4 (4=61 to 80%) |
| FC(F)=C(F)CCSc1ccccc1Oc1ncc(Cl)cn1 [Compound A68] | 4 (4=61 to 80%) | 5 (5=81 to 100%) | 5 (5=81 to 100%) | 5 (5=81 to 100%) | 5 (5=81 to 100%) | 5 (5=81 to 100%) | 4 (4=61 to 80%) | 5 (5=81 to 100%) |
